Some test systems named below: UACC-257; DU-145; A549; HT-29; SF-539; NCI-H522; PC-3; 786-0; UO-31; SNB-75; OVCAR-5; HCT-15; MDA-MB-435; A498; SF-295; RPMI-8226; CCRF-CEM; MOLT-4; NCI/ADR-RES; OVCAR-8.
Assay in all cases: growth of human tumour cells (NCI), 48 h

Each structure is given as a SMILES string.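 Protocol summary: plate cells (96-well), add compound at 5 concentrations, incubate 48 h, interpolate endpoints linearly. GI50: concentration for 50% inhibition of growth.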 Active and inactive are the calls of the source. Rule as the data show it: active = GI50 up to about 1.1 µM and inactive = higher.

On to `CC(C)(C)OC(=O)C(C#N)C(=O)c1ccc(C(=O)O)[nH]1` (stereo not given), for which the GI50 with UACC-257 was 30.2 µM (inactive); in the assay with DU-145, 48.2 µM (inactive); in the assay with A549, 35.9 µM (inactive); in the assay with HT-29 it was 39.2 µM (inactive); in the assay with SF-539 it was 51.6 µM (inactive); in the assay on NCI-H522, 33.5 µM (inactive). The GI50 with PC-3 is 33.7 µM (inactive); with 786-0, 51.9 µM (inactive); in the assay with UO-31, 30.8 µM (inactive); in the assay with SNB-75, 50.5 µM (inactive); in the assay with OVCAR-5, 48.4 µM (inactive); in the assay on HCT-15 it was 23.2 µM. The GI50 in the assay on MDA-MB-435 is 32.3 µM (inactive); with A498, 20.5 µM (inactive); in the assay with SF-295, 33.5 µM (inactive); in the assay on RPMI-8226, 22.8 µM (inactive); in the assay on CCRF-CEM, 15 µM (inactive); with MOLT-4 it was 33.6 µM (inactive). In addition, the GI50 in the assay with NCI/ADR-RES was 12.7 µM (inactive); in the assay on OVCAR-8, 30.1 µM (inactive).
Consider `O=C(CCCN1CCC2(CC1)CC(=O)N(N1CCCCCC1)C2=O)c1ccccc1`, for which the GI50 is > 100 µM (inactive) in the assay on UACC-257; > 100 µM (inactive) in the assay on DU-145; > 100 µM (inactive) with A549; 67.1 µM (inactive) in the assay with HT-29; > 100 µM (inactive) in the assay with SF-539; > 100 µM (inactive) with NCI-H522. For the same compound, the GI50 with PC-3 is > 100 µM (inactive); with 786-0 it was > 100 µM (inactive); with UO-31, > 100 µM (inactive); with SNB-75, > 100 µM (inactive); in the assay on OVCAR-5 it was > 100 µM (inactive); in the assay with HCT-15, more than 100 µM. In addition, the GI50 with MDA-MB-435, with A498, in the assay with SF-295, in the assay on RPMI-8226, with CCRF-CEM and with MOLT-4 was > 100 µM (inactive) in each case. Moreover, the GI50 with NCI/ADR-RES and with OVCAR-8 was > 100 µM (inactive) in each case.
